For one molecule, XRPD and Purity results are on record in patent publication US20240150289A1, “CRYSTALLINE CARBAZOLE DERIVATIVE” (Raziel Therapeutics Ltd., priority 2021, published 2024).

A short description of data set [1]: Long-term stability tests of crystalline Compound A Form 1 (storage, HPLC purity and XRPD). In kind it is physicochemical. The settings on record: for Purity: HPLC. As to the method: (§1) XRPD analysis was carried out on a PANalytical X'pert Pro with PIXcel detector (128 channels), scanning the samples between 3 and 35° 2θ. The material was gently ground (where required) to release any agglomerates and loaded onto a multi-well plate with Kapton or Mylar polymer film to support the sample. The multi-well plate was then placed into the diffractometer and analyzed using Cu K radiation (α1 λ=1.54060 Å; α2 λ=1.54443 Å; β=1.39225 Å; α1:α2 ratio=0.5) running in transmission mode (step size 0.0130° 2θ, step time 18.87s) using 40 kV/40 mA generator settings. Data were visualized and images generated using the HighScore Plus 4.7 desktop application (PANalytical, 2017). Crystalline Compound A Form 1 was not changed after storage at 25° C/60%RH for 36 months or storage at 40° C/75%RH for 6 months. Purity was determined by HPLC analysis.

The nature of data set [2]: Accelerated stability tests of crystalline Compound A Form 1 (storage, HPLC purity and XRPD). Type of data set: physicochemical. To be noted: 7 days; for Purity: HPLC. As to the method:
as §1, with “room temperature” for “25° C/60%RH”, “7 days, storage at 40° C./75% RH for 7 days,” for “36 months”, “80° C.” for “40° C/75%RH”, “7 days.” for “6 months.”

The mark [3] stands for this setting: 25° C./60% RH (closed container), 3 months.
The mark [4] stands for this setting: 25° C./60% RH (closed container), 6 months.
The mark [5] stands for this setting: 25° C./60% RH (closed container), 12 months.
[6] abbreviates: 25° C./60% RH (closed container), 24 months.
Where [7] appears, read: 25° C./60% RH (closed container), 36 months.
Where [8] appears, read: 40° C./75% RH (closed container), 1 month.
Setting [9] is: 40° C./75% RH (closed container), 3 months.
Where [10] appears, read: 40° C./75% RH (closed container), 6 months.

Entries after “also recorded” stand apart in the source; their conditions may differ.

`C[N+](C)(C)CCCCCn1c2ccc(Br)cc2c2cc(Br)ccc21.[Cl-]` [Compound A Form 1, 5-(3,6-dibromo-9H-carbazol-9-yl)-N,N,N-trimethylpentan-1-aminium chloride Form 1]: the XRPD result in data set [1] (setting [3]) was “Unchanged”; in data set [1] (setting [4]), “Unchanged”; in data set [1] (setting [5]), “Unchanged”; in data set [1] (setting [6]), “Unchanged”; in data set [1] (setting [7]), “not changed; also recorded: Unchanged”; in data set [1] (setting [8]), “Unchanged”. Besides, the XRPD result is given as “Unchanged” in data set [1] (setting [9]); “not changed; also recorded: Unchanged” in data set [1] (setting [10]); “not changed; also recorded: Unchanged” in data set [2] (40° C./75% RH (open vial)); “not changed; also recorded: Unchanged” in data set [2] (80° C. (closed vial)); “not changed; also recorded: Unchanged” in data set [2] (Room Temperature (open vial)). For the same molecule, the Purity in data set [1] (setting [3]), in data set [1] (setting [4]), in data set [1] (setting [5]), in data set [1] (setting [6]), in data set [1] (setting [7]) and in data set [1] (setting [8]) was 99.7% each time. The Purity in data set [1] (setting [9]) was determined as 99.7%; in data set [1] (setting [10]) it was 99.8%; in data set [2] (40° C./75% RH (open vial)), 99.93%; in data set [2] (80° C. (closed vial)), 99.93%; in data set [2] (Room Temperature (open vial)), 99.93%.
